Converted amounts (≈) assume the structure as drawn. Read-outs that look alike come from different tables or passages of the source.
Assays:
[1] = system: K. pneumoniae ATCCBAA-2344 producing KPC-2; experiment: Systemic infection lethal mouse model, ED50 (Example 14, Table 31); details: 7 days after infection
Experimental: The test strains on the agar medium were suspended in saline and adjusted to a Klett unit of about 200 using a Klett Photoelectric Colorimeter. […] Male ICR mice were inoculated intraperitoneally with 0.2 mL of the bacterial suspension. Two hours after the inoculation, saline or a solution for administering the agent at each concentration was administered subcutaneously to the mice in a single dose. The number of mice that survived from Day 1 to Day 7 after infection was recorded.

[2] = system: carbapenemase-producing Enterobacteriaceae (CPE); experiment: Bactericidal activity by bactericidal curve method (Example 10); format: cell-based, E. coli, Klebsiella pneumoniae; details: MEPM ≥1 x MIC; within 1 to 2 hours after culture; all four strains
[3] = system: carbapenemase-producing Enterobacteriaceae (CPE); experiment: MIC in human urine and CAMHB at pH 5.0 to 8.0 (Example 13, Tables 29, 30)

C[C@@H](O)[C@H]1C(=O)N2C(C(=O)O)=C(S[C@@H]3CN[C@H](C(=O)N(C)C)C3)[C@H](C)[C@H]12 [MEPM, meropenem]
Survival rate ([1]; Dose 10 mg/kg): 10% | Survival rate ([1]; Dose 30 mg/kg): 10% | Survival rate ([1]; Dose 60 mg/kg): 10% | Survival rate ([1]; Dose 100 mg/kg): 50% | reduction in the number of bacteria compared to preculture level [2]: 3 log10 | MIC ([3]; Escherichia coli, ATCC25922, pH 5, read-out: MICs of MEPM, E. coli ATCC 25922 (QC strain), CAMHB pH5.0): 0.12 µg/mL (≈ 0.313 µM) | MIC ([3]; Escherichia coli, ATCC25922, pH 5, read-out: MICs of MEPM, E. coli ATCC 25922 (QC strain), Human urine pH5.0): 0.12 µg/mL (≈ 0.313 µM) | MIC ([3]; Escherichia coli, ATCC25922, pH 6, read-out: MICs of MEPM, E. coli ATCC 25922 (QC strain), CAMHB pH6.0): 0.06 µg/mL (≈ 0.156 µM) | MIC ([3]; Escherichia coli, ATCC25922, pH 6, read-out: MICs of MEPM, E. coli ATCC 25922 (QC strain), Human urine pH6.0): 0.03 µg/mL (≈ 0.0782 µM) | MIC ([3]; Escherichia coli, ATCC25922, pH 7, read-out: MICs of MEPM, E. coli ATCC 25922 (QC strain), Human urine pH7.0): 0.015 µg/mL (≈ 0.0391 µM) | MIC ([3]; Escherichia coli, ATCC25922, pH 7.2, read-out: MICs of MEPM, E. coli ATCC 25922 (QC strain), Standard condition (CAMHB pH7.2)): 0.03 µg/mL (≈ 0.0782 µM) | MIC ([3]; Escherichia coli, ATCC25922, pH 8, read-out: MICs of MEPM, E. coli ATCC 25922 (QC strain), CAMHB pH8.0): 0.015 µg/mL (≈ 0.0391 µM) | MIC ([3]; Escherichia coli, ATCC25922, pH 8, read-out: MICs of MEPM, E. coli ATCC 25922 (QC strain), Human urine pH8.0): 0.015 µg/mL (≈ 0.0391 µM) | MIC ([3]; Escherichia coli, ATCCBAA2340, pH 5, read-out: MICs of MEPM, E. coli ATCC BAA-2340 (KPC-3), CAMHB pH5.0): 2 µg/mL (≈ 5.22 µM) | MIC ([3]; Escherichia coli, ATCCBAA2340, pH 5, read-out: MICs of MEPM, E. coli ATCC BAA-2340 (KPC-3), Human urine pH5.0): 1 µg/mL (≈ 2.61 µM) | MIC ([3]; Escherichia coli, ATCCBAA2340, pH 6, read-out: MICs of MEPM, E. coli ATCC BAA-2340 (KPC-3), CAMHB pH6.0): 8 µg/mL (≈ 20.9 µM) | MIC ([3]; Escherichia coli, ATCCBAA2340, pH 6, read-out: MICs of MEPM, E. coli ATCC BAA-2340 (KPC-3), Human urine pH6.0): 1 µg/mL (≈ 2.61 µM) | MIC ([3]; Escherichia coli, ATCCBAA2340, pH 7, read-out: MICs of MEPM, E. coli ATCC BAA-2340 (KPC-3), Human urine pH7.0): 2 µg/mL (≈ 5.22 µM) | MIC ([3]; Escherichia coli, ATCCBAA2340, pH 7.2, read-out: MICs of MEPM, E. coli ATCC BAA-2340 (KPC-3), Standard condition (CAMHB pH7.2)): 8 µg/mL (≈ 20.9 µM) | MIC ([3]; Escherichia coli, ATCCBAA2340, pH 8, read-out: MICs of MEPM, E. coli ATCC BAA-2340 (KPC-3), CAMHB pH8.0): 4 µg/mL (≈ 10.4 µM) | MIC ([3]; Escherichia coli, ATCCBAA2340, pH 8, read-out: MICs of MEPM, E. coli ATCC BAA-2340 (KPC-3), Human urine pH8.0): 8 µg/mL (≈ 20.9 µM) | MIC ([3]; Escherichia coli, ATCCBAA2469, pH 5, read-out: MICs of MEPM, E. coli ATCC BAA-2469 (NDM-1), CAMHB pH5.0): 0.12 µg/mL (≈ 0.313 µM) | MIC ([3]; Escherichia coli, ATCCBAA2469, pH 5, read-out: MICs of MEPM, E. coli ATCC BAA-2469 (NDM-1), Human urine pH5.0): 0.12 µg/mL (≈ 0.313 µM) | MIC ([3]; Escherichia coli, ATCCBAA2469, pH 6, read-out: MICs of MEPM, E. coli ATCC BAA-2469 (NDM-1), CAMHB pH6.0): 8 µg/mL (≈ 20.9 µM) | MIC ([3]; Escherichia coli, ATCCBAA2469, pH 6, read-out: MICs of MEPM, E. coli ATCC BAA-2469 (NDM-1), Human urine pH6.0): 0.12 µg/mL (≈ 0.313 µM) | MIC ([3]; Escherichia coli, ATCCBAA2469, pH 7, read-out: MICs of MEPM, E. coli ATCC BAA-2469 (NDM-1), Human urine pH7.0): 16 µg/mL (≈ 41.7 µM) | MIC ([3]; Escherichia coli, ATCCBAA2469, pH 7.2, read-out: MICs of MEPM, E. coli ATCC BAA-2469 (NDM-1), Standard condition (CAMHB pH7.2)): 32 µg/mL (≈ 83.4 µM) | MIC ([3]; Escherichia coli, ATCCBAA2469, pH 8, read-out: MICs of MEPM, E. coli ATCC BAA-2469 (NDM-1), CAMHB pH8.0): 64 µg/mL (≈ 167 µM) | MIC ([3]; Escherichia coli, ATCCBAA2469, pH 8, read-out: MICs of MEPM, E. coli ATCC BAA-2469 (NDM-1), Human urine pH8.0): 8 µg/mL (≈ 20.9 µM) | MIC ([3]; Escherichia coli, NCTC13476, pH 5, read-out: MICs of MEPM, E. coli NCTC 13476 (IMP-1), CAMHB pH5.0): 0.25 µg/mL (≈ 0.652 µM) | MIC ([3]; Escherichia coli, NCTC13476, pH 5, read-out: MICs of MEPM, E. coli NCTC 13476 (IMP-1), Human urine pH5.0): 0.25 µg/mL (≈ 0.652 µM) | MIC ([3]; Escherichia coli, NCTC13476, pH 6, read-out: MICs of MEPM, E. coli NCTC 13476 (IMP-1), CAMHB pH6.0): 1 µg/mL (≈ 2.61 µM) | MIC ([3]; Escherichia coli, NCTC13476, pH 6, read-out: MICs of MEPM, E. coli NCTC 13476 (IMP-1), Human urine pH6.0): 0.12 µg/mL (≈ 0.313 µM) | MIC ([3]; Escherichia coli, NCTC13476, pH 7, read-out: MICs of MEPM, E. coli NCTC 13476 (IMP-1), Human urine pH7.0): 1 µg/mL (≈ 2.61 µM) | MIC ([3]; Escherichia coli, NCTC13476, pH 7.2, read-out: MICs of MEPM, E. coli NCTC 13476 (IMP-1), Standard condition (CAMHB pH7.2)): 4 µg/mL (≈ 10.4 µM) | MIC ([3]; Escherichia coli, NCTC13476, pH 8, read-out: MICs of MEPM, E. coli NCTC 13476 (IMP-1), CAMHB pH8.0): 16 µg/mL (≈ 41.7 µM) | MIC ([3]; Escherichia coli, NCTC13476, pH 8, read-out: MICs of MEPM, E. coli NCTC 13476 (IMP-1), Human urine pH8.0): 8 µg/mL (≈ 20.9 µM) | MIC ([3]; Klebsiella pneumoniae, ATCCBAA2342, pH 5, read-out: MICs of MEPM, K. pneumoniae ATCC BAA-2342 (KPC-3), CAMHB pH5.0): 16 µg/mL (≈ 41.7 µM) | MIC ([3]; Klebsiella pneumoniae, ATCCBAA2342, pH 5, read-out: MICs of MEPM, K. pneumoniae ATCC BAA-2342 (KPC-3), Human urine pH5.0): 4 µg/mL (≈ 10.4 µM) | MIC ([3]; Klebsiella pneumoniae, ATCCBAA2342, pH 6, read-out: MICs of MEPM, K. pneumoniae ATCC BAA-2342 (KPC-3), CAMHB pH6.0): 16 µg/mL (≈ 41.7 µM) | MIC ([3]; Klebsiella pneumoniae, ATCCBAA2342, pH 6, read-out: MICs of MEPM, K. pneumoniae ATCC BAA-2342 (KPC-3), Human urine pH6.0): 8 µg/mL (≈ 20.9 µM) | MIC ([3]; Klebsiella pneumoniae, ATCCBAA2342, pH 7, read-out: MICs of MEPM, K. pneumoniae ATCC BAA-2342 (KPC-3), Human urine pH7.0): 16 µg/mL (≈ 41.7 µM) | MIC ([3]; Klebsiella pneumoniae, ATCCBAA2342, pH 7.2, read-out: MICs of MEPM, K. pneumoniae ATCC BAA-2342 (KPC-3), Standard condition (CAMHB pH7.2)): 16 µg/mL (≈ 41.7 µM) | MIC ([3]; Klebsiella pneumoniae, ATCCBAA2342, pH 8, read-out: MICs of MEPM, K. pneumoniae ATCC BAA-2342 (KPC-3), CAMHB pH8.0): 16 µg/mL (≈ 41.7 µM) | MIC ([3]; Klebsiella pneumoniae, ATCCBAA2342, pH 8, read-out: MICs of MEPM, K. pneumoniae ATCC BAA-2342 (KPC-3), Human urine pH8.0): 32 µg/mL (≈ 83.4 µM) | MIC ([3]; Klebsiella pneumoniae, ATCCBAA2344, pH 5, read-out: MICs of MEPM, K. pneumoniae ATCC BAA-2344 (KPC-2), CAMHB pH5.0): 8 µg/mL (≈ 20.9 µM) | MIC ([3]; Klebsiella pneumoniae, ATCCBAA2344, pH 5, read-out: MICs of MEPM, K. pneumoniae ATCC BAA-2344 (KPC-2), Human urine pH5.0): 2 µg/mL (≈ 5.22 µM) | MIC ([3]; Klebsiella pneumoniae, ATCCBAA2344, pH 6, read-out: MICs of MEPM, K. pneumoniae ATCC BAA-2344 (KPC-2), CAMHB pH6.0): 32 µg/mL (≈ 83.4 µM) | MIC ([3]; Klebsiella pneumoniae, ATCCBAA2344, pH 6, read-out: MICs of MEPM, K. pneumoniae ATCC BAA-2344 (KPC-2), Human urine pH6.0): 8 µg/mL (≈ 20.9 µM) | MIC ([3]; Klebsiella pneumoniae, ATCCBAA2344, pH 7, read-out: MICs of MEPM, K. pneumoniae ATCC BAA-2344 (KPC-2), Human urine pH7.0): 32 µg/mL (≈ 83.4 µM) | MIC ([3]; Klebsiella pneumoniae, ATCCBAA2344, pH 7.2, read-out: MICs of MEPM, K. pneumoniae ATCC BAA-2344 (KPC-2), Standard condition (CAMHB pH7.2)): 32 µg/mL (≈ 83.4 µM) | MIC ([3]; Klebsiella pneumoniae, ATCCBAA2344, pH 8, read-out: MICs of MEPM, K. pneumoniae ATCC BAA-2344 (KPC-2), CAMHB pH8.0): 32 µg/mL (≈ 83.4 µM) | MIC ([3]; Klebsiella pneumoniae, ATCCBAA2344, pH 8, read-out: MICs of MEPM, K. pneumoniae ATCC BAA-2344 (KPC-2), Human urine pH8.0): 32 µg/mL (≈ 83.4 µM) | MIC ([3]; Klebsiella pneumoniae, ATCCBAA2470, pH 5, read-out: MICs of MEPM, K. pneumoniae ATCC BAA-2470 (NDM-1), CAMHB pH5.0): 0.12 µg/mL (≈ 0.313 µM) | MIC ([3]; Klebsiella pneumoniae, ATCCBAA2470, pH 5, read-out: MICs of MEPM, K. pneumoniae ATCC BAA-2470 (NDM-1), Human urine pH5.0): 0.12 µg/mL (≈ 0.313 µM) | MIC ([3]; Klebsiella pneumoniae, ATCCBAA2470, pH 6, read-out: MICs of MEPM, K. pneumoniae ATCC BAA-2470 (NDM-1), CAMHB pH6.0): 8 µg/mL (≈ 20.9 µM) | MIC ([3]; Klebsiella pneumoniae, ATCCBAA2470, pH 6, read-out: MICs of MEPM, K. pneumoniae ATCC BAA-2470 (NDM-1), Human urine pH6.0): 0.12 µg/mL (≈ 0.313 µM) | MIC ([3]; Klebsiella pneumoniae, ATCCBAA2470, pH 7, read-out: MICs of MEPM, K. pneumoniae ATCC BAA-2470 (NDM-1), Human urine pH7.0): 16 µg/mL (≈ 41.7 µM) | MIC ([3]; Klebsiella pneumoniae, ATCCBAA2470, pH 7.2, read-out: MICs of MEPM, K. pneumoniae ATCC BAA-2470 (NDM-1), Standard condition (CAMHB pH7.2)): 16 µg/mL (≈ 41.7 µM) | MIC ([3]; Klebsiella pneumoniae, ATCCBAA2470, pH 8, read-out: MICs of MEPM, K. pneumoniae ATCC BAA-2470 (NDM-1), CAMHB pH8.0): 64 µg/mL (≈ 167 µM) | MIC ([3]; Klebsiella pneumoniae, ATCCBAA2470, pH 8, read-out: MICs of MEPM, K. pneumoniae ATCC BAA-2470 (NDM-1), Human urine pH8.0): 8 µg/mL (≈ 20.9 µM) | MIC ([3]; Klebsiella pneumoniae, ATCCBAA2524, pH 5, read-out: MICs of MEPM, K. pneumoniae ATCC BAA-2524 (OXA-48), CAMHB pH5.0): 0.25 µg/mL (≈ 0.652 µM) | MIC ([3]; Klebsiella pneumoniae, ATCCBAA2524, pH 5, read-out: MICs of MEPM, K. pneumoniae ATCC BAA-2524 (OXA-48), Human urine pH5.0): 0.25 µg/mL (≈ 0.652 µM)
